Like-named read-outs stand apart in the source and are kept apart here.
Key:
Cryptococcus neoformans = details: Cryptococcus neoformans; for Minimum inhibitory concentration, Average: average of triplicates
Method in brief: (§1)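 MICs determined per CLSI M7-A10 (bacteria) and M27-A3 (yeasts) protocols, peptides tested at 0.5 to 256 μM. MIC taken as the lowest concentration with no cells seen by optical microscopy; three biological repeats with 2 technical replicates each.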

Escherichia coli = details: Escherichia coli; for Minimum inhibitory concentration, Average: average of triplicates
Method in brief: as §1

Pseudomonas aeruginosa = details: Pseudomonas aeruginosa; for Minimum inhibitory concentration, Average: average of triplicates
Method in brief: as §1

Xanthomonas campestris = details: for Minimum inhibitory concentration, Average: average of triplicates
Method in brief: as §1

Bacillus cereus = test system: Bacillus cereus
Method in brief: as §1

Candida albicans = details: Candida albicans; for Minimum inhibitory concentration, Average: average of triplicates
Method in brief: as §1

Staphylococcus aureus = details: Staphylococcus aureus; for Minimum inhibitory concentration, Average: average of triplicates
Method in brief: as §1

[1] = test system: Pseudomonas syringae pv. tabaci; details: Pseudomonas syringae pv. tabaci; for Minimum inhibitory concentration, Average: average of triplicates
Method in brief: as §1

Bacillus subtilis = details: Bacillus subtilis; for Minimum inhibitory concentration, Average: average of triplicates
Method in brief: as §1

Erwinia carotovora = details: Erwinia carotovora; for Minimum inhibitory concentration, Average: average of triplicates
Method in brief: as §1

[2] = CLSI M27-A3, 0.5 to 256 μM tested, triplicate 1, also published in ref 7
[3] = Bacillus cereus, CLSI M7-A10, triplicate 1
[4] = Bacillus cereus, average of triplicates

Sequence	Minimum inhibitory concentration (Cryptococcus neoformans; CLSI M27-A3, triplicate 1) [µM]	Minimum inhibitory concentration, Average (Cryptococcus neoformans) [µM]	Minimum inhibitory concentration (Cryptococcus neoformans; triplicate 2) [µM]	Minimum inhibitory concentration (Cryptococcus neoformans; triplicate 3) [µM]	Minimum inhibitory concentration (Escherichia coli; CLSI M7-A10, triplicate 1) [µM]	Minimum inhibitory concentration, Average (Escherichia coli) [µM]	Minimum inhibitory concentration (Escherichia coli; triplicate 2) [µM]	Minimum inhibitory concentration (Escherichia coli; triplicate 3) [µM]	Minimum inhibitory concentration (Pseudomonas aeruginosa; CLSI M7-A10, triplicate 1) [µM]	Minimum inhibitory concentration, Average (Pseudomonas aeruginosa) [µM]	Minimum inhibitory concentration (Pseudomonas aeruginosa; triplicate 2) [µM]	Minimum inhibitory concentration (Pseudomonas aeruginosa; triplicate 3) [µM]	Minimum inhibitory concentration (Xanthomonas campestris; CLSI M7-A10, triplicate 1) [µM]	Minimum inhibitory concentration, Average (Xanthomonas campestris) [µM]	Minimum inhibitory concentration (Xanthomonas campestris; triplicate 2) [µM]	Minimum inhibitory concentration (Xanthomonas campestris; triplicate 3) [µM]	Minimum inhibitory concentration, Average (Candida albicans) [µM]	Minimum inhibitory concentration (Candida albicans; triplicate 2) [µM]	Minimum inhibitory concentration (Candida albicans; triplicate 3) [µM]	Minimum inhibitory concentration (Staphylococcus aureus; CLSI M7-A10, triplicate 1) [µM]	further results
GSLHGFMYKYLKNMVLTLF [At01]	16	16.0	16	16	64	64.0	64	64	32	32.0	32	32	128	128.0	128	128	16.0	16	16	16	Minimum inhibitory concentration (Bacillus cereus): 128 µM; Minimum inhibitory concentration, Average (Bacillus cereus): 128.0 µM; Minimum inhibitory concentration (Candida albicans; [2]): 16 µM; Minimum inhibitory concentration, Average (Staphylococcus aureus): 16.0 µM; Minimum inhibitory concentration (Staphylococcus aureus; triplicate 2): 16 µM; Minimum inhibitory concentration (Staphylococcus aureus; triplicate 3): 16 µM; Minimum inhibitory concentration ([1]; CLSI M7-A10, triplicate 1): 16 µM; Minimum inhibitory concentration, Average [1]: 16.0 µM; Minimum inhibitory concentration ([1]; triplicate 2): 16 µM; Minimum inhibitory concentration ([1]; triplicate 3): 16 µM; Minimum inhibitory concentration (Bacillus subtilis; CLSI M7-A10, triplicate 1): 16 µM; Minimum inhibitory concentration, Average (Bacillus subtilis): 16.0 µM; Minimum inhibitory concentration (Bacillus subtilis; triplicate 2): 16 µM; Minimum inhibitory concentration (Bacillus subtilis; triplicate 3): 16 µM; Minimum inhibitory concentration (Erwinia carotovora; CLSI M7-A10, triplicate 1): 256 µM; Minimum inhibitory concentration, Average (Erwinia carotovora): 256.0 µM; Minimum inhibitory concentration (Erwinia carotovora; triplicate 2): 256 µM; Minimum inhibitory concentration (Erwinia carotovora; triplicate 3): 256 µM
GSLHGFMYKYLKTLVLRLY [Zm01]	4	4.0	4	4	8	13.3	16	16	16	16.0	16	16	16	16.0	16	16	6.7	8	8	16	Minimum inhibitory concentration (Bacillus cereus; [3]): 64 µM; Minimum inhibitory concentration, Average (Bacillus cereus; [4]): 44.7 µM; Minimum inhibitory concentration (Bacillus cereus; Bacillus cereus, triplicate 2): 64 µM; Minimum inhibitory concentration (Candida albicans; [2]): 4 µM; Minimum inhibitory concentration, Average (Staphylococcus aureus): 16.0 µM; Minimum inhibitory concentration (Staphylococcus aureus; triplicate 2): 16 µM; Minimum inhibitory concentration (Staphylococcus aureus; triplicate 3): 16 µM; Minimum inhibitory concentration ([1]; CLSI M7-A10, triplicate 1): 32 µM; Minimum inhibitory concentration, Average [1]: 32.0 µM; Minimum inhibitory concentration ([1]; triplicate 2): 32 µM; Minimum inhibitory concentration ([1]; triplicate 3): 32 µM; Minimum inhibitory concentration (Bacillus subtilis; CLSI M7-A10, triplicate 1): 8 µM; Minimum inhibitory concentration, Average (Bacillus subtilis): 8.0 µM; Minimum inhibitory concentration (Bacillus subtilis; triplicate 2): 8 µM; Minimum inhibitory concentration (Bacillus subtilis; triplicate 3): 8 µM; Minimum inhibitory concentration (Erwinia carotovora; CLSI M7-A10, triplicate 1): 16 µM; Minimum inhibitory concentration, Average (Erwinia carotovora): 16.0 µM; Minimum inhibitory concentration (Erwinia carotovora; triplicate 2): 16 µM; Minimum inhibitory concentration (Erwinia carotovora; triplicate 3): 16 µM
GSLHGFMYRYLKNMVLNLF [Cs01]	8	8.0	8	8	32	32.0	32	32	32	32.0	32	32	64	64.0	64	64	2.7	2	4	4	Minimum inhibitory concentration (Bacillus cereus; [3]): 64 µM; Minimum inhibitory concentration, Average (Bacillus cereus; [4]): 64.0 µM; Minimum inhibitory concentration (Bacillus cereus; Bacillus cereus, triplicate 2): 64 µM; Minimum inhibitory concentration (Bacillus cereus; Bacillus cereus, triplicate 3): 64 µM; Minimum inhibitory concentration (Candida albicans; [2]): 2 µM; Minimum inhibitory concentration, Average (Staphylococcus aureus): 4.0 µM; Minimum inhibitory concentration (Staphylococcus aureus; triplicate 2): 4 µM; Minimum inhibitory concentration (Staphylococcus aureus; triplicate 3): 4 µM; Minimum inhibitory concentration ([1]; CLSI M7-A10, triplicate 1): 16 µM; Minimum inhibitory concentration, Average [1]: 16.0 µM; Minimum inhibitory concentration ([1]; triplicate 2): 16 µM; Minimum inhibitory concentration ([1]; triplicate 3): 16 µM; Minimum inhibitory concentration (Bacillus subtilis; CLSI M7-A10, triplicate 1): 8 µM; Minimum inhibitory concentration, Average (Bacillus subtilis): 8.0 µM; Minimum inhibitory concentration (Bacillus subtilis; triplicate 2): 8 µM; Minimum inhibitory concentration (Bacillus subtilis; triplicate 3): 8 µM; Minimum inhibitory concentration (Erwinia carotovora; CLSI M7-A10, triplicate 1): 128 µM; Minimum inhibitory concentration, Average (Erwinia carotovora): 128.0 µM; Minimum inhibitory concentration (Erwinia carotovora; triplicate 2): 128 µM; Minimum inhibitory concentration (Erwinia carotovora; triplicate 3): 128 µM
IKLRNVLKYLFRIDVIKEDIL [Tc03]	512	512.0	512	512	64	64.0	64	64	512	512.0	512	512	64	64.0	64	64	512.0	512	512	512	Minimum inhibitory concentration (Bacillus cereus; [3]): 128 µM; Minimum inhibitory concentration, Average (Bacillus cereus; [4]): 128.0 µM; Minimum inhibitory concentration (Bacillus cereus; Bacillus cereus, triplicate 2): 128 µM; Minimum inhibitory concentration (Bacillus cereus; Bacillus cereus, triplicate 3): 128 µM; Minimum inhibitory concentration, Average (Staphylococcus aureus): 512.0 µM; Minimum inhibitory concentration (Staphylococcus aureus; triplicate 2): 512 µM; Minimum inhibitory concentration (Staphylococcus aureus; triplicate 3): 512 µM; Minimum inhibitory concentration ([1]; CLSI M7-A10, triplicate 1): 32 µM; Minimum inhibitory concentration, Average [1]: 32.0 µM; Minimum inhibitory concentration ([1]; triplicate 2): 32 µM; Minimum inhibitory concentration ([1]; triplicate 3): 32 µM; Minimum inhibitory concentration (Bacillus subtilis; CLSI M7-A10, triplicate 1): 16 µM; Minimum inhibitory concentration, Average (Bacillus subtilis): 16.0 µM; Minimum inhibitory concentration (Bacillus subtilis; triplicate 2): 16 µM; Minimum inhibitory concentration (Bacillus subtilis; triplicate 3): 16 µM; Minimum inhibitory concentration (Erwinia carotovora; CLSI M7-A10, triplicate 1): 32 µM; Minimum inhibitory concentration, Average (Erwinia carotovora): 32.0 µM; Minimum inhibitory concentration (Erwinia carotovora; triplicate 2): 32 µM; Minimum inhibitory concentration (Erwinia carotovora; triplicate 3): 32 µM

Reference: paper PMC5775428, “Towards an experimental classification system for membrane active peptides” (Scientific Reports, 2018)
